Reference: US9598423B2 (BRISTOL-MYERS SQUIBB COMPANY, priority 2013, dated 2017)

Tests used:
CK1ε = CK1ε (Homo sapiens (Human), UniProt P49674); test: CK1ε kinase assay (Caliper LABCHIP electrophoretic separation of fluoresceinated peptide substrate and product); format: biochemical; details: 200 pM CK1ε, 50 μM ATP, 1.5 μM peptide substrate, 22 hours at room temperature; read-out: CK1ε (IC50)
Summary of the method: (§1)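 Reactions ran 22 hours at room temperature and were stopped with EDTA. Phosphorylated product and unphosphorylated substrate were then separated electrophoretically. Compounds were tested at eleven concentrations, and IC50 values came from non-linear regression.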

CK1δ = CK1δ (Homo sapiens (Human), UniProt P48730); test: CK1δ kinase assay (Caliper LABCHIP electrophoretic separation of fluoresceinated peptide substrate and product); format: biochemical; details: 200 pM CK1δ, 50 μM ATP, 1.5 μM peptide substrate, 22 hours at room temperature; read-out: CK1δ (IC50)
Summary of the method: as §1

Chain of CK1ε (P49674 whole entry): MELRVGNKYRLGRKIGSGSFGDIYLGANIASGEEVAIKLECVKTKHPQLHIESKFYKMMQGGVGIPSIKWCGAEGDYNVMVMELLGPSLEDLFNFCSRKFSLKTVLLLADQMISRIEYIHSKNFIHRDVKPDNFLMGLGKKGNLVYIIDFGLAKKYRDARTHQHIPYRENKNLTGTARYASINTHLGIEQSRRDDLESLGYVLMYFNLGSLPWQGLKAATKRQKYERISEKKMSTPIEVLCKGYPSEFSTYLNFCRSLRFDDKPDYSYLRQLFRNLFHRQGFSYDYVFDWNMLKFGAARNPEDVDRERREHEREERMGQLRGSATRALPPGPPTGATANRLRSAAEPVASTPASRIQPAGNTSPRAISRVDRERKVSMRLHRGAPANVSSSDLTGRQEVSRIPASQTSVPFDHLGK
Chain of CK1δ (P48730 whole entry): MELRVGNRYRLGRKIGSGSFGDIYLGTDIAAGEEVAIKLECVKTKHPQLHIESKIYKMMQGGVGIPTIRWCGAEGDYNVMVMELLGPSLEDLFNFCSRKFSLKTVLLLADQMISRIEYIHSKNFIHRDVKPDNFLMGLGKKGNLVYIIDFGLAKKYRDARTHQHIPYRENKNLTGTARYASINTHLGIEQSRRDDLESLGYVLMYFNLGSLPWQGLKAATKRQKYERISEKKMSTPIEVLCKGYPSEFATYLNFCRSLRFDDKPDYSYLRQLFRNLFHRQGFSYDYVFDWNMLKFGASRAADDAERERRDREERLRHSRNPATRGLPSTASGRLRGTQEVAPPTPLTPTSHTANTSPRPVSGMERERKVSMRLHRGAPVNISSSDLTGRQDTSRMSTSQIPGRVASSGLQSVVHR

| Structure (SMILES) | IC50 (CK1ε) [nM] | IC50 (CK1δ) [nM] |
| --- | --- | --- |
| N#Cc1ccc(NC(=O)N2Cc3c(C(N)=O)c(-c4ccc(F)c(Cl)c4)nn3CC23CC3)cc1 [Compound 343, 2′-(3-Chloro-4-fluorophenyl)-N^5′-(4-cyanophenyl)-4′H-spiro[cyclopropane-1,6′-pyrazolo[1,5-a]pyrazine]-3′,5′(7′H)-dicarboxamide] | 10 to 100 | 10 to 100 |
| N#Cc1ccc(NC(=O)N2Cc3c(C(N)=O)c(-c4ccc(Cl)c(Cl)c4)nn3[C@H]3COC[C@H]32)cc1 [Compound 349, (5aS,8aR)-N^5-(4-Cyanophenyl)-2-(3,4-dichlorophenyl)-5a,6,8,8a-tetrahydrofuro[3,4-e]pyrazolo[1,5-a]pyrazine-3,5(4H)-dicarboxamide] | 0.01 to 10 | 0.01 to 10 |
| CC(C)(C)NC(=O)N1CCn2nc(-c3cncc(F)c3)c(C(N)=O)c2C1 [Compound 113, N^5-(tert-Butyl)-2-(5-fluoropyridin-3-yl)-6,7-dihydropyrazolo[1,5-a]pyrazine-3,5(4H)-dicarboxamide] | 100 to 2000 | 10 to 100 |
| Cn1ncc2cc(-c3nn4c(c3C(N)=O)CN(C(=O)Nc3ccc(C#N)cc3)CC4)cc(Cl)c21 [Compound 318, 2-(7-Chloro-1-methyl-1H-indazol-5-yl)-N^5-(4-cyanophenyl)-6,7-dihydropyrazolo[1,5-a]pyrazine-3,5(4H)-dicarboxamide] | 0.01 to 10 | 0.01 to 10 |

Continued, values first:

| IC50 (CK1ε) [nM] | IC50 (CK1δ) [nM] | Structure (SMILES) |
| --- | --- | --- |
| 0.01 to 10 | 0.01 to 10 | NC(=O)c1c(-c2ccc(F)c(F)c2)nn2c1CN(C(=O)Nc1ccc3c(c1)OC(F)(F)O3)CC2 [Compound 232, N^5-(2,2-Difluorobenzo [d][1,3]dioxol-5-yl)-2-(3,4-difluorophenyl)-6,7-dihydropyrazolo [1,5-a]pyrazine-3,5(4H)-dicarboxamide] |
| 0.01 to 10 | 0.01 to 10 | Cc1cccc(-c2nn3c(c2C(N)=O)CN(C(=O)Nc2ccc(C#N)cc2)CC3)c1 [Compound 289, N^5-(4-Cyanophenyl)-2-(m-tolyl)-6,7-dihydropyrazolo [1,5-a]pyrazine-3,5(4H)-dicarboxamide] |
| 0.01 to 10 | 0.01 to 10 | NC(=O)c1c(-c2ccc(F)c(Cl)c2)nn2c1CN(C(=O)Nc1cc(C(F)(F)F)cc(C(F)(F)F)c1)CC2 [Compound 188, N^5-(3,5-Bis(trifluoromethyl)phenyl)-2-(3-chloro-4-fluorophenyl)-6,7-dihydropyrazolo[1,5-a] pyrazine-3,5(4H)-dicarboxamide] |
